# From ChEMBL document CHEMBL1201862, “PubChem BioAssay data set” (2004)
#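 These data come from cells grown in 96-well plates and exposed to compound for 48 hours at five concentrations. The concentration for 50% growth inhibition is given as GI50.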 Active and inactive are the calls of the source. Cut-off read from the data, not from the text of the source: active = GI50 up to about 1.1 µM and inactive = higher.
# Assays:
# Test in all cases: inhibition of tumour cell growth, NCI panel, 48 h
# RXF 631 = test system: RXF 631
# LXFL 529 = test system: LXFL 529
# XF498 = test system: XF498
# DLD-1 = test system: DLD-1
# SNB-78 = test system: SNB-78
# DMS-273 = test system: DMS-273
# M19-MEL = test system: M19-MEL
# HOP-18 = test system: HOP-18
# KM-20L2 = test system: KM-20L2
Structure (SMILES),GI50 (RXF 631),GI50 (LXFL 529),GI50 (XF498),GI50 (DLD-1),GI50 (SNB-78),GI50 (DMS-273),GI50 (M19-MEL),GI50 (HOP-18),GI50 (KM-20L2)
C[C@]12CCC(=O)CC1CCCC2=O (some centres undefined),> 100 µM (inactive),> 100 µM (inactive),> 100 µM (inactive),> 100 µM (inactive),> 100 µM (inactive),> 100 µM (inactive),> 100 µM (inactive),,
O=c1cccccc1NCCCCCCNc1cccccc1=O,> 100 µM (inactive),> 100 µM (inactive),,> 100 µM (inactive),> 100 µM (inactive),> 100 µM (inactive),> 100 µM (inactive),> 100 µM (inactive),> 100 µM (inactive)
COC(=O)[C@H](Cc1ccccc1)NC(=O)/C(=C/C(C)C)NC(=O)[C@H](CCSC)NC=O,,> 100 µM (inactive),> 100 µM (inactive),> 100 µM (inactive),,> 100 µM (inactive),> 100 µM (inactive),> 100 µM (inactive),> 100 µM (inactive)
Sc1nc(S)nc(Oc2ccc(Cl)c(Cl)c2)n1,16.3 µM (inactive),34.9 µM (inactive),25.4 µM (inactive),27.1 µM (inactive),34.4 µM (inactive),19 µM (inactive),22.8 µM (inactive),36.4 µM (inactive),33.6 µM (inactive)
O=C(CC(=O)c1ccccc1)CC(O)(c1ccccc1)c1ccccc1,,3.24 µM (inactive),,4.18 µM (inactive),21 µM (inactive),,3.12 µM (inactive),,5.25 µM (inactive)
CCCCCC(=O)c1ccc2[nH]c3c(C)cc([N+](=O)[O-])c(C)c3c2c1,,,> 100 µM (inactive),,> 100 µM (inactive),27.9 µM (inactive),> 100 µM (inactive),,
CCOC(=O)C1=C(NC)OCC1=O,> 100 µM (inactive),> 100 µM (inactive),> 100 µM (inactive),,> 100 µM (inactive),> 100 µM (inactive),> 100 µM (inactive),,> 100 µM (inactive)
O=c1cc[nH]c2c1ccc1ncccc12,> 100 µM (inactive),> 100 µM (inactive),,> 100 µM (inactive),> 100 µM (inactive),> 100 µM (inactive),> 100 µM (inactive),> 100 µM (inactive),> 100 µM (inactive)
COc1cc(Cc2cc(OC)c(OC)c(OC)c2)ccc1O,,43.6 µM (inactive),19.9 µM (inactive),6.11 µM (inactive),40.6 µM (inactive),,6.38 µM (inactive),,36.5 µM (inactive)
CCCCCCCSCC1OC(n2cnc3c(N)ncnc32)C(O)C1O (centres undefined),,12.3 µM (inactive),63.4 µM (inactive),7.64 µM (inactive),> 100 µM (inactive),21.3 µM (inactive),,17.9 µM (inactive),> 100 µM (inactive)
CCCC(=O)OCC1OC(n2ccc(N)nc2=O)C(OC(=O)CCC)C1OC(=O)CCC (centres undefined),,,,> 100 µM (inactive),> 100 µM (inactive),36.7 µM (inactive),43.2 µM (inactive),1 µM (active),11.4 µM (inactive)
C/C(=N\NC(=S)Nc1ccc([N+](=O)[O-])cc1S(=O)(=O)O)c1ccccn1,> 100 µM (inactive),61 µM (inactive),30 µM (inactive),41.2 µM (inactive),> 100 µM (inactive),37 µM (inactive),43.8 µM (inactive),40.1 µM (inactive),26.3 µM (inactive)
CC(C)Cc1cccc(C(C)C)c1NC(=O)CCC(=O)N/N=C1\C(=N/NC(=O)CCC(=O)Nc2c(C(C)C)cccc2C(C)C)C(c2ccc3c(c2)OCO3)Oc2ccccc21 (centres undefined),,43.6 µM (inactive),> 100 µM (inactive),40.8 µM (inactive),94 µM (inactive),76.9 µM (inactive),> 100 µM (inactive),,> 100 µM (inactive)
CC(=O)C(CN(C)C)C(c1ccccc1)c1c(O)c2ccccc2oc1=O (centres undefined),,> 100 µM (inactive),> 100 µM (inactive),> 100 µM (inactive),> 100 µM (inactive),> 100 µM (inactive),> 100 µM (inactive),> 100 µM (inactive),> 100 µM (inactive)
O=C(Cc1ccccc1)NN1C(=O)C(Cl)C1c1ccc(Cl)cc1 (centres undefined),,> 100 µM (inactive),> 100 µM (inactive),> 100 µM (inactive),> 100 µM (inactive),> 100 µM (inactive),,> 100 µM (inactive),> 100 µM (inactive)
CC#N.O[C@@H]1CCCC[C@@H]1O.O[C@@H]1CCCC[C@@H]1O.[TeH2],18.7 µM (inactive),63.7 µM (inactive),> 100 µM (inactive),22.7 µM (inactive),> 100 µM (inactive),19.6 µM (inactive),25.1 µM (inactive),27.5 µM (inactive),65.5 µM (inactive)
COc1ccc(C=O)c(NC(=O)C(C)C)c1,,44.9 µM (inactive),21.9 µM (inactive),,66.1 µM (inactive),28.9 µM (inactive),21 µM (inactive),39.7 µM (inactive),51.5 µM (inactive)
CCOC(=O)/C=C/n1c2ccccc2c(=O)c2cc(OC)ccc21,87.5 µM (inactive),> 100 µM (inactive),48.5 µM (inactive),69.7 µM (inactive),,49 µM (inactive),> 100 µM (inactive),> 100 µM (inactive),> 100 µM (inactive)
CN(C)CC1(Cc2ccccc2)CC/C(=C\c2ccccc2)C1=O (centres undefined),29.3 µM (inactive),37.2 µM (inactive),80.9 µM (inactive),27.6 µM (inactive),52.2 µM (inactive),36.5 µM (inactive),26.8 µM (inactive),> 100 µM (inactive),17.2 µM (inactive)
O=c1cc2ccccc2nn1Cc1ccccc1Cl,,,80.2 µM (inactive),> 100 µM (inactive),> 100 µM (inactive),> 100 µM (inactive),> 100 µM (inactive),> 100 µM (inactive),> 100 µM (inactive)
CN1C/C(=C\c2ccc(C(=O)O)cc2)C(=O)/C(=C/c2ccc(C(=O)O)cc2)C1,> 100 µM (inactive),> 100 µM (inactive),> 100 µM (inactive),> 100 µM (inactive),> 100 µM (inactive),> 100 µM (inactive),> 100 µM (inactive),> 100 µM (inactive),> 100 µM (inactive)
C/N=c1\ss/c(=N\C(=S)N(C)C)n1-c1ccccc1,,> 100 µM (inactive),,> 100 µM (inactive),46 µM (inactive),> 100 µM (inactive),> 100 µM (inactive),> 100 µM (inactive),> 100 µM (inactive)
S=C(N/N=C/c1ccccc1)NC12CC3CC(CC(C3)C1)C2,44.5 µM (inactive),64.7 µM (inactive),35.8 µM (inactive),,,22.6 µM (inactive),,,7.08 µM (inactive)
FC(F)(F)c1nc(-c2ccccc2)oc1Sc1oc(-c2ccccc2)nc1C(F)(F)F,,> 100 µM (inactive),34.8 µM (inactive),> 100 µM (inactive),> 100 µM (inactive),66.7 µM (inactive),> 100 µM (inactive),73.6 µM (inactive),> 100 µM (inactive)
CC12CCC(C(=O)N3CC=CCC3)(OC1=O)C2(C)C (centres undefined),,,> 100 µM (inactive),> 100 µM (inactive),> 100 µM (inactive),> 100 µM (inactive),> 100 µM (inactive),> 100 µM (inactive),> 100 µM (inactive)
CC(=O)OCCOCNC(=S)N/N=C(\C)c1cnc2ccccc2n1,,30.8 µM (inactive),> 100 µM (inactive),26.2 µM (inactive),> 100 µM (inactive),31.9 µM (inactive),15.8 µM (inactive),> 100 µM (inactive),16.3 µM (inactive)
CC(C)OC(=O)c1cc(NC(=O)C(C)(C)C)c(F)cc1Cl,> 100 µM (inactive),> 100 µM (inactive),> 100 µM (inactive),,,> 100 µM (inactive),> 100 µM (inactive),> 100 µM (inactive),> 100 µM (inactive)
CC1S(=O)(=O)OCCOS1(=O)=O,31.7 µM (inactive),> 100 µM (inactive),,> 100 µM (inactive),> 100 µM (inactive),60 µM (inactive),> 100 µM (inactive),> 100 µM (inactive),> 100 µM (inactive)
